# Where a SMILES comes first, the peptide text is derived from it. [ ]: non-standard residue; d: D form.
# System: rat cut-wound model
# Assay: Effect to heal cut wounds, wound closing tension
# Assay type: in vivo
# Details: 500 ng, 5 and 50 μg dropwise once a day, measured on Day 6
# Method: Next, using rat cut-wound model, the effect of the polypeptides, SR-07 and SR-08, to heal cut wounds in vivo was evaluated. As described in Tetsuaki Yamaura et al. (Oyo Yakuri (Pharmacometrics) 22, 565-579 (1981)), the rat cut-wound model was produced and the wound closing tension was measured.
# That is, a cut wound of 30 to 36 mm was made on the back of Crl:CD (SD) rats (male, 7-week old, obtained from Charles River Laboratories Japan, Inc.) using a safety razor, and sutured at 3 points equally spaced. The day when this surgical treatment was applied was regarded as […] (Day 0). Onto the suture site, 50 μL of each of the peptides which were test substances and were respectively prepared to the concentration of 10, 100 and 1000 μg/mL was added dropwise (the added amounts were 500 ng and 5 and 50 μg, respectively). Additions of 50 μL physiological saline were regarded as negative controls (Saline). Each peptide was added dropwise once a day till the day when the measurement of the wound closing tension was carried out. The sutures were removed on Day 3, and the wound closing tension was measured on Day 6.
structure (smiles),measurement,value
CC[C@H](C)[C@H](NC(=O)[C@H](CC(C)C)NC(=O)[C@H](CCCCN)NC(=O)[C@@H](N)CC(C)C)C(=O)N[C@@H](Cc1ccccc1)C(=O)N[C@@H](CC(C)C)C(=O)N[C@@H](Cc1c[nH]cn1)C(=O)N[C@@H](CCCNC(=N)N)C(=O)N[C@@H](CC(C)C)C(=O)N[C@@H](CCCCN)C(=O)N[C@@H](CCCNC(=N)N)C(=O)N[C@@H](CCSC)C(=O)N[C@@H](CCCNC(=N)N)C(=O)N[C@@H](CCCCN)C(=O)N[C@@H](CCCNC(=N)N)C(=O)N[C@@H](CC(C)C)C(=O)N[C@H](CCCCN)C(=O)N[C@@H](CCCNC(=N)N)C(=O)N[C@@H](CCCCN)C(N)=O [SR-08] (H-LKLIFLHRLKRMRKRL[dK]RK-NH2; N-terminus assumed),Wound closing tension (FIGS. 7 and 8),the wound closing tension tended to be increased

# From patent US9695219B2, “Polypeptide having antibacterial activity and angiogenesis-inducing activity and wound-healing drug containing said polypeptide” (priority 2009, dated 2017)
